Results reported in ChEMBL document CHEMBL1131475, “Discovery of ritonavir, a potent inhibitor of HIV protease with high oral bioavailability and clinical efficacy” (J Med Chem, 1998).

Tests used:
[1] = in vivo; settings: rat, plasma, po, 10 mg/kg
[2] = in vivo; settings: rat, plasma, po
[3] = in vivo; settings: rat, plasma, po; remark: listed apart in the source
[4] = in vivo; settings: rat, plasma, iv
[5] = Oral bioavailability in rat; type: ADME, organism-based; settings: in vivo

| SMILES | Cmax [1] | AUC [2] | Tmax [3] | half-life [4] | bioavailability [5] |
| --- | --- | --- | --- | --- | --- |
| CC(C)C(NC(=O)OCc1cncc(N)c1)C(=O)N[C@@H](Cc1ccccc1)C[C@H](O)[C@H](Cc1ccccc1)NC(=O)OCc1cccnc1 (stereo not given in full) | 140 nM | 30 ng·h/mL | 6 min | 30 min | 0.3% |
| Cc1nc(CN(C)C(=O)NC(C(=O)N[C@@H](Cc2ccccc2)C[C@H](O)[C@H](Cc2ccccc2)NC(=O)OCc2cccnc2)C(C)C)cs1 (stereo not given in full) | 2100 nM | 1060 ng·h/mL | 9 min | 43.2 min | 26% |
| CCc1nc(CN(C)C(=O)NC(C(=O)N[C@@H](Cc2ccccc2)C[C@H](O)[C@H](Cc2ccccc2)NC(=O)OCc2cncs2)C(C)C)co1 (stereo not given in full) | 8010 nM | 8910 ng·h/mL | 19.8 min | 120 min | 57% |
| Cc1ncc(COC(=O)N[C@@H](Cc2ccccc2)C[C@H](O)[C@H](Cc2ccccc2)NC(=O)C(NC(=O)N(C)Cc2csc(C(C)C)n2)C(C)C)s1 (stereo not given in full) | 2080 nM | 2370 ng·h/mL | 42 min | 27.6 min | 28% |
| Cc1cncc(COC(=O)NC(C(=O)N[C@@H](Cc2ccccc2)C[C@H](O)[C@H](Cc2ccccc2)NC(=O)OCc2cccnc2)C(C)C)n1 (stereo not given in full) | 1330 nM | 640 ng·h/mL | 6 min | 69 min | 10% |
| Cc1cncc(CN(C)C(=O)NC(C(=O)N[C@@H](Cc2ccccc2)C[C@H](O)[C@H](Cc2ccccc2)NC(=O)OCc2cccnc2)C(C)C)c1 (stereo not given in full) | 690 nM | 310 ng·h/mL | 6 min | 31.8 min | 9.7% |
| CC(C)c1nc(CCC(=O)NC(C(=O)N[C@@H](Cc2ccccc2)C[C@H](O)[C@H](Cc2ccccc2)NC(=O)OCc2cccnc2)C(C)C)cs1 (stereo not given in full) | 380 nM | 170 ng·h/mL | 6 min | 16.8 min | 3.4% |
| Cc1ncc(COC(=O)N[C@@H](Cc2ccccc2)[C@@H](O)C[C@H](Cc2ccccc2)NC(=O)C(NC(=O)N(C)Cc2csc(C(C)C)n2)C(C)C)s1 (stereo not given in full) | 650 nM | 910 ng·h/mL | 72 min | 26.4 min | 23% |
| CC(NC(=O)OCc1csc(C(C)C)n1)C(=O)N[C@@H](Cc1ccccc1)C[C@H](O)[C@H](Cc1ccccc1)NC(=O)OCc1cncs1 (stereo not given in full) | 1090 nM | 1230 ng·h/mL | 24 min | 31.8 min | 19% |
| Cc1cncc(COC(=O)NC(C(=O)N[C@@H](Cc2ccccc2)C[C@H](O)[C@H](Cc2ccccc2)NC(=O)OCc2cccnc2)C(C)C)c1 (stereo not given in full) | 330 nM | 70 ng·h/mL | 9 min | 22.8 min | 1.6% |
| Cc1ncc(COC(=O)NC(C(=O)N[C@@H](Cc2ccccc2)[C@@H](O)C[C@H](Cc2ccccc2)NC(=O)OCc2cccnc2)C(C)C)nc1C (stereo not given in full) | 350 nM | 120 ng·h/mL | 12 min | 18 min | 5.7% |
| CC(C)C(NC(=O)OCc1ccccn1)C(=O)N[C@@H](Cc1ccccc1)[C@@H](O)C[C@H](Cc1ccccc1)NC(=O)OCc1cncnc1 (stereo not given in full) | 1180 nM | 280 ng·h/mL | 12 min | 30 min | 6.7% |
| Cc1ncc(CN(C)C(=O)NC(C(=O)N[C@@H](Cc2ccccc2)C[C@H](O)[C@H](Cc2ccccc2)NC(=O)OCc2cccnc2)C(C)C)nc1C (stereo not given in full) | 1130 nM | 330 ng·h/mL | 15 min | 18 min | 6.4% |
| Cc1ccc(CN(C)C(=O)NC(C(=O)N[C@@H](Cc2ccccc2)C[C@H](O)[C@H](Cc2ccccc2)NC(=O)OCc2cccnc2)C(C)C)cn1 (stereo not given in full) | 310 nM | 60 ng·h/mL | 12 min | 21 min | 2.1% |
| COCc1ncc(COC(=O)NC(C(=O)N[C@@H](Cc2ccccc2)C[C@H](O)[C@H](Cc2ccccc2)NC(=O)OCc2cccnc2)C(C)C)s1 (stereo not given in full) | 120 nM | 20 ng·h/mL | 6 min | 16.2 min | 0.6% |
| CC(C)c1nc(CN(C)C(=O)NC(C(=O)N[C@@H](Cc2ccccc2)C[C@H](O)[C@H](Cc2ccccc2)NC(=O)OCc2cnco2)C(C)C)co1 (stereo not given in full) | 2050 nM | 1850 ng·h/mL | 9 min | 15.6 min | 35% |
| CC(C)c1nc(CN(C)C(=O)NCCC(=O)N[C@@H](Cc2ccccc2)C[C@H](O)[C@H](Cc2ccccc2)NC(=O)OCc2cncs2)cs1 | 630 nM | 190 ng·h/mL | 6 min | 57.6 min | 7.1% |
| CC(C)C(NC(=O)N(C)Cc1csc(C2CCC2)n1)C(=O)N[C@@H](Cc1ccccc1)C[C@H](O)[C@H](Cc1ccccc1)NC(=O)OCc1cncs1 (stereo not given in full) | 2480 nM | 6290 ng·h/mL | 72 min | 24 min | 60% |
| CC(C)c1ncc(COC(=O)NC(C(=O)N[C@@H](Cc2ccccc2)[C@@H](O)C[C@H](Cc2ccccc2)NC(=O)OCc2cccnc2)C(C)C)s1 (stereo not given in full) | 100 nM | 30 ng·h/mL | 12 min | 37.2 min | 0.8% |
